Measurements reported in patent US20030134859A1 (SANKYO COMPANY, LIMITED, priority 2000, published 2003).

Columns and labels:
KK mice = test: Plasma glucose lowering effects in hyperglycemic KK mice; assay type: in vivo, mouse; settings: male KK mice, 0.3 weight % in food for 1 week
Protocol: Unless otherwise described, mice were bred individually, and food and water were taken ad libitum in the following experiments. For this, F2 food powder (Funahashi Farm) was used. Plasma glucose level in the blood collected from the tail vein of a mouse with a heparin-coated glass tube was determined with the Glucoloader (A&T Corp.).
Male KK mice (purchased from Clea Japan, Inc) were purchased at 6 weeks old and were bred until 19 weeks old through an acclimatisation period and test period. The plasma glucose level of each mouse was determined and the occurrence of hyperglycemia in the mice was confrrmed. The animals with a plasma glucose level of 350 mg/dl and higher were screened and the animals for use in the experiment were selected. The selected mice were divided into a control group and a test compound treated group (n=6/group) matched for body weights and plasma glucose levels.
In the control group, conventional food powder was given-to each mouse, while in the test compound-treated group, the food comprising the food powder (F2) mixed with the test compound (final concentration: 0.3 weight %) was given to each mouse. The mice in both groups were bred for 1 week.
One week after the treatment, the blood glucose level was determined.

lenses = test: Cataract assessment: opacity of cultured lenses exposed to hydrogen peroxide; parameters: species or system rat; settings: 100 nM test compound with 5 mM hydrogen peroxide; 24 hr; clear: 0, slightly opaque: 1, moderately opaque: 2
Protocol: The lenses were isolated from Sprague-Dawley rats (male, purchased from SLC Japan), and the lenses were pre-cultured in a medium (Medium-199: GIBCO BRL) for 3 hr and the lenses maintaining transparency were selected and used in the experiment. The crystalline lenses were cultured for 24 hr in the following 3 groups; 1) in Medium-199 (3 mL), 2) in Medium-199 (3 mL) containing hydrogen peroxide (final concentration: 5 mM) and 3) in Medium-199 (3 mL) containing the test compound (final concentration: 100 nM), DMSO (final concentration: 0.1% v/v) and hydrogen peroxide (final concentration: 5 mM). After finalising culturing, the opacity of the lens was scored based on the following criteria: clear: 0, slightly opaque: 1, moderately opaque: 2. Thus the improving effect of the test compound on cataracts was assessed.

ABCA1 mRNA = test: Quantitative analysis of ABCA1 mRNA (TaqMan PCR) in RAW264.7 cells; assay type: cell-based, mouse; settings: 100 nM test compound, 24 hr, normalised to β-actin, DMSO = 100
Protocol: The mouse monocyte/macrophage cell line, RAW264.7 (ATCC TIB71) was purchased from Dainippon Pharmaceutical Co., Ltd. As the medium, the Dulbecco's modified Eagle's medium (DMEM medium; GIBCO, Cat. No. 11995-040) containing bovine fetal serum (the final concentration: 10% (v/v), MOREGATE, lot No. 474030), penicillin G (the final concentration: 50 units/mL, GIBCO) and streptomycin (the final concentration: 20 μg/mL, GIBCO) was used.
The culture of RAW264.7 cells was carried out in a CO2 incubator (37° C., 95% R.H., 5% of CO2).
A 2 ml volume of RAW264.7 cells suspension (1×10^6 cells/mL) was plated in each well of a 6-well plate (2×10^6 cells/well) and the cells were incubated for 2 hr in a CO2 incubator. The test compounds dissolved in DMSO were diluted with DMEM medium by 20 times, and were added to the wells at a volume of 4 μL/well (final concentration of the test compound: 100 nM). As the control, the DMSO solution was diluted with the DMEM medium by 20 times, and was added to the wells at the volume of 4 μL/well. After the cells were cultured in a CO2 incubator for 24 hr, the medium was removed and the total RNA was purified by using an RNeasy Mini Kit (Qiagen), according to the protocol attached. The concentration of the RNA in the samples obtained was calculated from absorbance at 260 nm (A260=1=40 μg/ml). Six (6) μg of total RNA were diluted with RNAase-free water so as to be 22.6 μL, which was heated at 65° C. for 10 min, and then was cooled on ice. The RNA in the solution was used as the template, and the cDNA was synthesized by using a First-strand cDNA Synthesis Kit (Amersham Pharmacia Biotech). In this reaction, a solution was prepared having the following composition and was reacted at 37° C. for 1 hr.
After the reaction, 3 μL of soution were collected from each of the reaction mixtures of the test compound-treated cell samples and that of the control cell samples. The mixed solution was used as the standard solution. The standard solution and each reaction solution were purified with a Chroma Spin-100+DEPC-H2O Column according to the protocol attached, and they were used as the template for TaqMan PCR (Template). In order to draw the calibration curve, the standard solution was diluted by every 5 times for 5 steps and each solution was used for TaqMan PCR. TaqMan PCR was carried out in ABCA1 and β-actin. As Primers for use in the TaqMan PCR, 4 oligonucleotides (abca1 forward (S3), abca1 reverse (AS3), β-actin forward (S4) and β-actin reverse (AS4)) were designed which are shown in sequences No. 5 to 8 in the sequence table described later. The synthesis and purification of these 4 oligomers was ordered from Amersham Pharmacia Biotech Co.
As FAM-TAMRA labelled TaqMan Probe, 2 kinds of oligonucleotides (abca1 (p1) and β-actin (p2)) were designed and were ordered from Applied Biosystems Co. to synthesize and purify.
The following reaction mixture of ABCA1 or β-actin was divided into 2 wells of a MicroAmp Optical 96-well Reaction Plate (Applied Biosystem Co.). TaqMan Universal PCR Master Mix was purchased from Applied Biosystem Co.
The plate was covered with a MicroAmp Optical Cap (Applied Biosystems Co.), and TaqMan PCR was carried out by using an ABI PRISM 7,700 Sequence Detection System (Applied Biosystem Co.) under the following conditions:
An analysis was made according to the procedures described in the manual of Sequence Detection Software (Applied Biosystem Co.) and the increased rate of ABCA1 mRNA due to the test compound was calculated based on the following equation.
A: Amount of the ABCA1 mRNA in the presence of the test compound
B: Amount of the β-actin mRNA in the presence of the test compound
C: Amount of the ABCA1 mRNA in the presence of DMSO
D: Amount of the β-actin mRNA in the presence of DMSO
Increase Rate (%) of ABCA1 mRNA=(A/B)/(C/D)×100

## O=C(Nc1ccc(OC(F)(F)F)cc1)c1cc([N+](=O)[O-])ccc1Cl [Example 18, N-(4-Trifluoromethyloxyphenyl)-(2-chloro-5-nitrophenyl)carboxamide]
KK mice; n=6/group
  plasma glucose on Day 7: 315 ± 14
KK mice; plasma glucose on Day 7
  % of inhibition (vs. control): 55%

## Cc1c(C)c2c(c(C)c1O)C(=O)CC(C)(COc1ccc(NC(=O)c3cc([N+](=O)[O-])ccc3Cl)cc1)O2 (centres unmarked) [Example 92, N-[4-(6-Hydroxy-2,5,7,8-tetramethyl-4-oxochroman-2-ylmethoxy)phenyl]-(2-chloro-5-nitrophenyl)carboxamide]
lenses
  opacity of the lens (average score): 1.0

## CCN(CC)c1ccc(-c2ccc(NC(=O)c3cc([N+](=O)[O-])ccc3Cl)cc2)cc1 [Example 217, N-[4-[4-(N,N-Diethylamino)phenyl]phenyl]-(2-chloro-5-nitrophenyl)carboxamide]
ABCA1 mRNA
  Rate of Increase (%) of ABCA1 mRNA: 187.0%

## CCN(C)c1ccc(-c2ccc(NC(=O)c3cc([N+](=O)[O-])ccc3Cl)cc2)cc1 [Example 218, N-[4-[4-(N-Ethyl-N-methylamino)phenyl]phenyl]-(2-chloro-5-nitrophenyl)carboxamide]
ABCA1 mRNA
  Rate of Increase (%) of ABCA1 mRNA: 190.0%
